Source: patent publication US10906897B2, “Microbiocidal heterobicyclic derivatives” (priority 2015, dated 2021)

Key:
[1] = test system: Monographella nivalis (Microdochium nivale); assay: Monographella nivalis (Microdochium nivale) / liquid culture (foot rot cereals); assay type: cell-based; conditions: 96 h, growth inhibition photometrically 4-5 days after application, compared to untreated control
[2] = test system: Glomerella lagenarium (Colletotrichum lagenarium); assay: Glomerella lagenarium (Colletotrichum lagenarium) / liquid culture (Anthracnose); assay type: cell-based; conditions: Colletotrichum orbiculare, growth inhibition photometrically 3-4 days after application, compared to untreated control
[3] = test system: Botryotinia fuckeliana (Botrytis cinerea); assay: Botryotinia fuckeliana (Botrytis cinerea) / liquid culture (Gray mould); assay type: cell-based; conditions: growth inhibition photometrically 3-4 days after application, compared to untreated control
[4] = test system: Fusarium culmorum; assay: microbe, parasite or virus in culture; assay type: cell-based; conditions: read-out: control of Fusarium culmorum
[5] = test system: Magnaporthe grisea (Pyricularia oryzae); assay: microbe, parasite or virus in culture; assay type: cell-based; conditions: read-out: control of Magnaporthe grisea

Row | Compound | inhibition of growth at 20 ppm [2] | inhibition of growth at 20 ppm [3] | melting point | also measured
1 | CC1(C)N=C(c2cnc3c(C(F)(F)F)cccn23)c2cccc(F)c2C1(C)C [Compound E-29, 5-fluoro-3,3,4,4-tetramethyl-1-[8-(trifluoromethyl)imidazo [1,2-a]pyridin-3-yl]isoquinoline] | ≥ 80% | ≥ 80% | 141 to 142 °C | inhibition of growth at 20 ppm [1]: ≥ 80%
2 | CC1(C)N=C(c2cnc3ccc(O)cn23)c2cccc(F)c2C1(C)C | – | – | 321 to 322 °C | –
3 | CSc1cccn2c(C3=NC(C)(C)Cc4c(F)cccc43)cnc12 [Compound E-17, 5-fluoro-3,3-dimethyl-1-(8-methylsulfanyl-imidazo[1,2-a]pyridin-3-yl)-4H-isoquinoline] | ≥ 80% | – | 119 to 120 °C | –
4 | CC1(C)N=C(c2cnc3c(F)cccn23)c2cccc(F)c2C1=O | – | – | 160 to 161 °C | –
5 | C#Cc1cccn2c(C3=NC(C)(C)C(C)(C)c4c(F)cccc43)cnc12 [Compound E-23, 1-(8-ethynylimidazo[1,2-a]pyridin-3-yl)-5-fluoro-3,3,4,4-tetramethyl-isoquinoline] | – | ≥ 80% | 169 to 170 °C | –
6 | CC1(C)N=C(c2cnc3cc(C#N)ccn23)c2cccc(F)c2C1(C)C [Compound E-46, 3-(5-fluoro-3,3,4,4-tetramethyl-1-isoquinolyl)imidazo[1,2-a]pyridine-7-carbonitrile] | ≥ 80% | ≥ 80% | 193 to 194 °C | –
7 | CC1(C)Cc2c(Cl)cccc2C(c2cnc3c(OC(F)F)cccn23)=N1 [Compound E-15, 5-chloro-1-[8-(difluoromethoxy)imidazo [1,2-a]pyridin-3-yl]-3,3-dimethyl-4H-isoquinoline] | – | – | 114 to 115 °C | inhibition of growth at 20 ppm [1]: ≥ 80%
8 | Cc1cccn2ncc(C3=NC(C)(C)C(=O)c4ccccc43)c12 [Compound E-68, 3,3-dimethyl-1-(4-methylpyrazolo[1,5-a]pyridin-3-yl)isoquinolin-4-one] | – | ≥ 80% | 140 to 141 °C | –
9 | CC1(C)N=C(c2cnc3c(OC(F)F)cccn23)c2cccc(F)c2C1(C)C [Compound E-7, 1-[8-(difluoromethoxy)imidazo [1,2-a]pyridin-3-yl]-5-fluoro-3,3,4,4-tetramethyl-isoquinoline] | ≥ 80% | ≥ 80% | 121 to 122 °C | –
10 | CC1(C)Cc2c(F)cccc2C(c2cnc3c(Br)cccn23)=N1 [Compound E-16, 1-(8-bromoimidazo[1,2-a]pyridin-3-yl)-5-fluoro-3,3-dimethyl-4H-isoquinoline] | ≥ 80% | – | 179 to 181 °C | –
11 | COc1cccn2c(C3=NC(C)(C)C(C)(C)c4c(F)cccc43)cnc12 [Compound E-24, 5-fluoro-1-(8-methoxyimidazo[1,2-a]pyridin-3-yl)-3,3,4,4-tetramethyl-isoquinoline] | ≥ 80% | ≥ 80% | 130 °C | inhibition of growth at 20 ppm [1]: ≥ 80%
12 | CC1(C)N=C(c2cnc3cc(O)ccn23)c2cccc(F)c2C1(C)C [Compound E-49, 3-(5-fluoro-3,3,4,4-tetramethyl-1-isoquinolyl)imidazo[1,2-a]pyridin-7-ol] | ≥ 80% | ≥ 80% | 246 to 247 °C | –
13 | Cc1nc2c(C)cccn2c1C1=NC(C)(C)C(C)(C)c2c(F)cccc21 [Compound E-40, 1-(2,8-dimethylimidazo[1,2-a]pyridin-3-yl)-5-fluoro-3,3,4,4-tetramethyl-isoquinoline] | ≥ 80% | ≥ 80% | – | –
14 | CC1(C)N=C(c2cnc3c(O)cccn23)c2cccc(F)c2C1(C)C [Compound E-27, 3-(5-fluoro-3,3,4,4-tetramethyl-1-isoquinolyl)imidazo[1,2-a]pyridin-8-ol] | ≥ 80% | ≥ 80% | 271 to 272 °C | –
15 | Cc1cccn2ncc(C3=NC(C)(C)C(=O)c4cc(F)ccc43)c12 [Compound E-75, 6-fluoro-3,3-dimethyl-1-(4-methylpyrazolo[1,5-a]pyridin-3-yl)isoquinolin-4-one] | – | ≥ 80% | 180 to 183 °C | –
16 | Cc1nn2ccccc2c1C1=NC(C)(C)C(C)(C)c2c(F)cccc21 [Compound E-62, 5-fluoro-3,3,4,4-tetramethyl-1-(2-methylpyrazolo[1,5-a]pyridin-3-yl)isoquinoline] | ≥ 80% | ≥ 80% | – | –
17 | CC1(C)Cc2c(F)cccc2C(c2cnc3c(F)cccn23)=N1 [Compound E-10, 5-fluoro-1-(8-fluoroimidazo[1,2-a]pyridin-3-yl)-3,3-dimethyl-4H-isoquinoline] | ≥ 80% | ≥ 80% | – | –
18 | COc1ccn2c(C3=NC(C)(C)C(C)(C)c4c(F)cccc43)cnc2c1 [Compound E-48, 5-fluoro-1-(7-methoxyimidazo[1,2-a]pyridin-3-yl)-3,3,4,4-tetramethyl-isoquinoline] | ≥ 80% | ≥ 80% | 139 to 140 °C | –
19 | CC1(C)N=C(c2cnc3ccccn23)c2cc(F)ccc2C1(C)C [Compound E-2, 7-fluoro-1-imidazo[1,2-a]pyridin-3-yl-3,3,4,4-tetramethyl-isoquinoline] | ≥ 80% | – | – | –
20 | CC1(C)Cc2c(Br)cccc2C(c2cnn3ccccc23)=N1 [Compound E-60, 5-bromo-3,3-dimethyl-1-pyrazolo[1,5-a]pyridin-3-yl-4H-isoquinoline] | – | ≥ 80% | – | –
21 | CC1(C)N=C(c2cnc3c(Br)cccn23)c2ccccc2C1=O | – | – | 204 to 205 °C | –

Row | Compound | inhibition of growth at 20 ppm [2] | inhibition of growth at 20 ppm [3] | melting point | also measured
22 | CC1(C)Cc2c(Cl)cccc2C(c2cnc3ccc(F)cn23)=N1 | – | – | 142 to 143 °C | –
23 | CC1(C)N=C(c2cnc3c(Br)cccn23)c2cccc(F)c2C1Br (stereo not shown) | – | – | 217 to 218 °C | –
24 | CC1(C)N=C(c2cnc3c(Br)cccn23)c2cccc(F)c2C1O (stereo not shown) | – | – | 204 to 205 °C | –
25 | Cc1ccn2c(C3=NC(C)(C)C(C)(C)c4c(F)cccc43)cnc2c1Cl [Compound E-47, 1-(8-chloro-7-methyl-imidazo[1,2-a]pyridin-3-yl)-5-fluoro-3,3,4,4-tetramethyl-isoquinoline] | ≥ 80% | ≥ 80% | 185 to 186 °C | inhibition of growth at 20 ppm [4]: ≥ 80%
26 | CC1(C)N=C(c2cnn3cccc(Br)c23)c2ccccc2C1=O | – | – | 148 to 151 °C | –
27 | CC1(C)N=C(c2cnc3ccc(F)cn23)c2cccc(F)c2C1(C)C | – | – | 200 to 202 °C | –
28 | CC1(C)N=C(c2cnn3cc(C#N)ccc23)c2ccccc2C1(F)F [Compound E-85, 3-(4,4-difluoro-3,3-dimethyl-1-isoquinolyl)pyrazolo[1,5-a]pyridine-6-carbonitrile] | – | ≥ 80% | 191 to 194 °C | inhibition of growth at 60 ppm [5]: ≥ 80%
29 | CC1(C)N=C(c2cnc3c(Cl)cccn23)c2cccc(F)c2C1(C)C [Compound E-32, 1-(8-chloroimidazo[1,2-a]pyridin-3-yl)-5-fluoro-3,3,4,4-tetramethyl-isoquinoline] | ≥ 80% | ≥ 80% | 167 to 168 °C | inhibition of growth at 20 ppm [4]: ≥ 80%
30 | CC1(C)Cc2c(Cl)cccc2C(c2cnc3c(F)cccn23)=N1 [Compound E-11, 5-chloro-1-(8-fluoroimidazo[1,2-a]pyridin-3-yl)-3,3-dimethyl-4H-isoquinoline] | ≥ 80% | ≥ 80% | 122 to 123 °C | –
31 | CCc1cccn2c(C3=NC(C)(C)C(C)(C)c4c(F)cccc43)cnc12 [Compound E-21, 1-(8-ethylimidazo[1,2-a]pyridin-3-yl)-5-fluoro-3,3,4,4-tetramethyl-isoquinoline] | ≥ 80% | ≥ 80% | – | inhibition of growth at 20 ppm [4]: ≥ 80%; inhibition of growth at 20 ppm [1]: ≥ 80%
32 | Cc1ccc2c(C3=NC(C)(C)C(F)(F)c4ccccc43)cnn2c1C | – | – | 160 to 161 °C | –
33 | Cc1cccn2ncc(C3=NC(C)(C)C(=O)c4c(F)cccc43)c12 | – | – | 141 to 143 °C | –
34 | CC1(C)N=C(c2cnc3c(Br)cccn23)c2ccccc2C1(F)F | – | – | 173 °C | –
35 | Cc1cccc2ncc(C3=NC(C)(C)C(C)(C)c4c(F)cccc43)n12 [Compound E-30, 5-fluoro-3,3,4,4-tetramethyl-1-(5-methylimidazo[1,2-a]pyridin-3-yl)isoquinoline] | ≥ 80% | ≥ 80% | 139 to 140 °C | –
36 | CC1(C)N=C(c2cnc3c(F)cccn23)c2cccc(F)c2C1O (stereo not shown) [Compound E-14, 5-fluoro-1-(8-fluoroimidazo[1,2-a]pyridin-3-yl)-3,3-dimethyl-4H-isoquinolin-4-ol] | ≥ 80% | – | 219 °C | –
37 | CC1(C)N=C(c2cnc3c(F)cccn23)c2cccc(F)c2C1(F)F [Compound E-19, 4,4,5-trifluoro-1-(8-fluoroimidazo[1,2-a]pyridin-3-yl)-3,3-dimethyl-isoquinoline] | ≥ 80% | ≥ 80% | 145 to 146 °C | –
38 | CC1(C)N=C(c2cnc3c(F)cccn23)c2cccc(F)c2C1Br (stereo not shown) | – | – | 211 to 212 °C | –
39 | CC1(C)N=C(c2cnc3c(Br)cccn23)c2cccc(F)c2C1=O | – | – | 146 to 147 °C | –
40 | CC1(C)N=C(c2cnc3c(F)cccn23)c2cccc(Cl)c2C1Br (stereo not shown) | – | – | 213 to 214 °C | –
41 | CC1(C)Cc2ccccc2C(c2cnc3cc(I)ccn23)=N1 | – | – | 190 to 193 °C | –
42 | CC1(C)Cc2c(Cl)cccc2C(c2cnc3ccccn23)=N1 [Compound E-3, 5-chloro-1-imidazo[1,2-a]pyridin-3-yl-3,3-dimethyl-4H-isoquinoline] | ≥ 80% | – | – | –
